Experiments:
Colo-205 cells = test: Colo-205 tumor cell proliferation, CCK-8, 72 hours; assay type: cell-based
[1] = Liver microsomal metabolic stability, mouse; assay type: in vitro ADME; settings: liver microsomes, 0.5 mg/mL microsomes, 1 μM compound, NADPH, read-out: Liver microsomal stability T1/2
Procedure: The reaction was stopped with tinidazole-containing acetonitrile at 0 min, 5 min, 10 min and 30 min, respectively. After vortexing for 10 min and centrifuging at 15,000 rmp for 10 min, 50 μL of the supernatant was injected into a 96-well plate. The metabolic stability of the compound was calculated by determining the relative reduction of the drug, calculated as half-life T1/2.

CYP1A2 = target: T1, CYP1A2 (Homo sapiens, UniProt P05177); test: Direct inhibition test (DI test) in human liver microsomes, CYP1A2
T1 sequence (P05177 1-516): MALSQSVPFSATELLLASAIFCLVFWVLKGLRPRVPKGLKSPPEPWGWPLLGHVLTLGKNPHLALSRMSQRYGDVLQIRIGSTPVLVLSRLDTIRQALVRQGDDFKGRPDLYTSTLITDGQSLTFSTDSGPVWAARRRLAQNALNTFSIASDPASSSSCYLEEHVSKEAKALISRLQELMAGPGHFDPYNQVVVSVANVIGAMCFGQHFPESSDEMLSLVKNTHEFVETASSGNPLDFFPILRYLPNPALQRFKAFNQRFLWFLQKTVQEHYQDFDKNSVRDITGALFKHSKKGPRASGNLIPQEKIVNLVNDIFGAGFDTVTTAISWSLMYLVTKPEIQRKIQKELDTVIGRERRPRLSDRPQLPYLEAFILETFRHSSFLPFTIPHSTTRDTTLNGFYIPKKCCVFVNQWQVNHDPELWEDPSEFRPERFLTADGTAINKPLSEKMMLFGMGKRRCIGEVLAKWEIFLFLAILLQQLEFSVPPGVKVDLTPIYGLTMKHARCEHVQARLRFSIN
Procedure: (§1) (2) Direct inhibition test (DI test): A system containing 100 μL of human liver microsomes (final concentration of 0.2 mg/mL) was subjected to a direct inhibition incubation, and the system contained NADPH (final concentration of 1 mM), 10 μM compound, positive inhibitor cocktail (10 μM ketoconazole, 10 μM quinidine, 100 μM sulfaphenazole, 10 μM α-naphthoflavone, 1,000 μM tranylcypromine), negative control (BPS of 0.1% DMSO), and mixed probe substrates (10 μM midazolam, 100 μM testosterone, 10 μM dextromethorphan, […], 100 μM phenacetin, 100 μM mephenytoin). After 20 minutes of incubation, the reaction was stopped. The relative activity of the enzyme was calculated by measuring the relative production of metabolites.

CYP2C8 = CYP2C8 (Homo sapiens, UniProt P11712); test: Direct inhibition test (DI test) in human liver microsomes, CYP2C8; assay type: in vitro ADME
CYP2C19 = target: T2, CYP2C19 (Homo sapiens, UniProt P33261); test: Direct inhibition test (DI test) in human liver microsomes, CYP2C19; assay type: in vitro ADME
T2 construct: A system containing 100 μL of human liver microsomes; from tissue; host or cells: human liver microsomes
Procedure: as §1

CYP2D6 = target: T3, CYP2D6 (Homo sapiens, UniProt P10635); test: Direct inhibition test (DI test) in human liver microsomes, CYP2D6; assay type: in vitro ADME
T3 construct: A system containing 100 μL of human liver microsomes; from tissue; host or cells: human liver microsomes
Procedure: as §1

[2] = In-vivo pharmacokinetic parameters in SD rats
Procedure: Six male SPF grade SD rats or Balb-c mice (Shanghai Sipple-Bikai Laboratory Animal) were divided into two groups, and the tested compounds were prepared into appropriate solutions or suspensions; one group was administered intravenously (with a dose of 1 mg/kg), and the other group was administered orally (with a dose of 5 mg/kg). Blood samples were collected by jugular vein puncture, and each sample was collected with a volume of about 0.2 mL/time point, and heparin sodium was used for anticoagulation. The time points of blood collection were listed below: 5, 15 and 30 min […], 1, 2, 4, 6, 8 and 24 h after administration; the collected blood samples were placed on ice and centrifuged to separate plasma (centrifugation conditions: 8,000 rpm, 6 min, 2 to 8° C.), and the collected plasma was stored at −80° C. before analysis. Plasma samples were analyzed by LC-MS/MS.
The pharmacokinetic parameters such as AUC0-t, AUC0-∞, MRT0-∞, Cmax, Tmax, T1/2 and Vd of the tested compounds and their mean values and standard deviations were calculated by the pharmacokinetic calculation software WinNonlin5.2 non-compartmental model according to the plasma concentration data. In addition, the bioavailability (F) was calculated by the following formula.
For samples with concentrations below the lower limit of quantitation, while pharmacokinetic parameter calculations were performed, samples sampled before Cmax was reached should be calculated as a zero value and samples sampled after Cmax was reached should be calculated as below limit of quantitation (BLQ).

[3] = male, rat, plasma, 1 mg/kg, IV, 1 mpk
[4] = male, rat, plasma, 5 mg/kg, PO, 5 mpk

T2 sequence (P33261 whole entry): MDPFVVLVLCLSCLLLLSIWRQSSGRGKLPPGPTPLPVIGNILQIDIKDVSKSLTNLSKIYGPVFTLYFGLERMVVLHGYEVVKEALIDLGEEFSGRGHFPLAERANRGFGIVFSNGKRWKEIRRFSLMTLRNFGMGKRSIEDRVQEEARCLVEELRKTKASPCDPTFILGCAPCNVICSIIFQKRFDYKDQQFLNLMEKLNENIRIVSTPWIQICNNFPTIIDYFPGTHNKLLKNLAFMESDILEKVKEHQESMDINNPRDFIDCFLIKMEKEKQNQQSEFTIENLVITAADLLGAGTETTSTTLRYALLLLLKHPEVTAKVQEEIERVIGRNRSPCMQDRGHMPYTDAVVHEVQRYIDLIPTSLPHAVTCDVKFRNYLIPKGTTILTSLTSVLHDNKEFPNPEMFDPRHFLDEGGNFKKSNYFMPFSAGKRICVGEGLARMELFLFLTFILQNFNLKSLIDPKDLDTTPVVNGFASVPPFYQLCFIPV
T3 sequence (P10635 whole entry): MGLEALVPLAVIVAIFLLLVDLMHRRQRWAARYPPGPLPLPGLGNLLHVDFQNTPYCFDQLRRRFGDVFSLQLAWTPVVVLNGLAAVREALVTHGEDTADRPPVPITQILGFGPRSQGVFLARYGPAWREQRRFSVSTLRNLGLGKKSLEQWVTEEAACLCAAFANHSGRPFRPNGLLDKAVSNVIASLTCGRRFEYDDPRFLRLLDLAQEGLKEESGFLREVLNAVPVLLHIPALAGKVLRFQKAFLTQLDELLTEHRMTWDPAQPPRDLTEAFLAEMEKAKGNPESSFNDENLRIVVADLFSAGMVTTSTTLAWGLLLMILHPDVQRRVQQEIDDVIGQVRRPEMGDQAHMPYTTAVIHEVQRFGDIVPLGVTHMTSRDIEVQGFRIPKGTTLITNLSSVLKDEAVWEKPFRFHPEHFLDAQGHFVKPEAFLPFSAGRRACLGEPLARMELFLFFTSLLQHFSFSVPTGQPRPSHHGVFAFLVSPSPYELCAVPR
Chain of CYP2C8 (P11712 whole entry): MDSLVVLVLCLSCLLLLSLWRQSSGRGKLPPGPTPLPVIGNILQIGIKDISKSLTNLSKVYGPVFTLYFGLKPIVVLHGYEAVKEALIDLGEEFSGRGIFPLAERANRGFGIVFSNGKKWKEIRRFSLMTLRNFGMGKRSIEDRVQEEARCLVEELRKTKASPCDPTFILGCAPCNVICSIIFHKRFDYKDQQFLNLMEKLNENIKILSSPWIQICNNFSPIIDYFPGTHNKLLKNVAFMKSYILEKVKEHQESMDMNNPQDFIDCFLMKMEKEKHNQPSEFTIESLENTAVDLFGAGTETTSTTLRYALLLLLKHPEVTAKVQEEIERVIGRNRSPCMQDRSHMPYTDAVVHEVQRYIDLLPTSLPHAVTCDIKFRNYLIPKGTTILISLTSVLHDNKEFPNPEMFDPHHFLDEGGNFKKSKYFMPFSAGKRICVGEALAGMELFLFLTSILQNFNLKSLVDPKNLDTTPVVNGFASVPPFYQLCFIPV

With `COc1cc(F)cc([C@@H](CO)NC(=O)[C@@H](C)N2Cc3ccc(-c4nc(NC5CCOCC5)ncc4F)c(F)c3C2=O)c1` [Embodiment 40] the “cell proliferation inhibitory activity (in words)” value (Colo-205 cells; Colo-205) was “strong cell proliferation inhibitory activity”, the IC50 (Colo-205 cells; Homo sapiens, COLO 205, 72 hours, CCK-8, numeric values, read-out: Colo-205 IC50) was 0.0038 µM and the half-life at 1 μM [1] was 13 min. The IC50 (CYP1A2) was over 10 µM, the IC50 at 20 min (CYP2C8) was over 10 µM and the IC50 (CYP2C19) was over 10 µM. It also gave an IC50 (CYP2D6) of over 10 µM, an F ([2]; PO 5 mpk vs IV 1 mpk) of 29% and an AUC(0-inf) [2, 3] of 0.304 µM·h. It also gave an AUC(0-t) [2, 3] of 0.303 µM·h, an MRT inf [2, 3] of 12 min and a clearance [2, 3] of 94 mL/min/kg. For the same compound, the half-life [2, 3] was 18 min, the Vd ([2]; male, rat, plasma, 1 mg/kg, IV, 1 mpk, read-out: Vss) was 0.9 L/kg and the AUC(0-inf) [2, 4] was 0.436 µM·h. For the same compound, the AUC(0-t) [2, 4] was 0.432 µM·h, the Cmax [2, 4] was 476 nM and the Tmax [2, 4] was 18 min. The half-life [2, 4] was 66 min.

From US20230312564A1, “AROMATIC RING-LACTAM COMPOUND, PREPARATION METHOD THEREFOR AND USE THEREOF” (SHANGHAI RINGENE BIOPHARMA CO., LTD., priority 2020, published 2023)
